From PMC5962653 (Frontiers in Microbiology, 2018) come the findings set out here.

In data set [1] the test system is K. pneumoniae VIM-1 producer (colistin-susceptible). Briefly: In vitro selection of colistin-resistant mutants (time-kill curves). Type of data set: cell-based, Klebsiella pneumoniae. Conditions: exposure at the MIC (0.5 mg/L) during 24 h in time-kill curves; sub-cultured twice antimicrobial free; increased from 0.5 mg/L. On the procedure: (§1) MICs determinations of colistin and rifampin were carried out in triplicate.

For data set [2], the system named is K. pneumoniae OXA-48 plus CTX-M-15 producer (colistin-susceptible). Described as above. The class given is cell-based, Klebsiella pneumoniae. Conditions: exposure at the MIC (0.5 mg/L) during 24 h in time-kill curves; sub-cultured twice antimicrobial free; increased from 0.5 mg/L. The procedure: as §1
The test system of data set [3] is K. pneumoniae VIM-1 producer. The class given is cell-based, Klebsiella pneumoniae. The procedure:
(§2) (2016)]. […] Tubes were incubated at 37°C, with shaking, and samples were taken at 0, 1, 3, 6, and 24 h, serially diluted and plated using a spiral platter (Eddy Jet, IUL S.A., Barcelona, Spain). Bacterial colonies were counted using an automatic counter (Flash & Go, IUL S.A., Barcelona, Spain) ([Pournaras et al., 2011]; [Souli et al., 2011]). Experiments were performed three times on separate occasions. […] Bactericidal activities of single antibiotics or combination were defined as a decrease ≥ 3 log10 cfu/mL from the starting inoculum ([Souli et al., 2009]). Studies were performed in triplicate.
(§3) The RIF concentration used for all strains was 2 mg/L. RIF, filled circles; CST, filled squares; combination of both antimicrobials, filled triangles.

The test system of data set [4] is K. pneumoniae OXA-48 plus CTX-M-15 producer. Type of data set: cell-based, Klebsiella pneumoniae. Conditions: at 24 h; colistin 0.5 mg/L. The procedure:
as §2, §3

Data set [5] concerns K. pneumoniae KPC-3 producer. Type of data set: cell-based, Klebsiella pneumoniae. Conditions: colistin 2 mg/L (EUCAST breakpoint), rifampin 2 mg/L, alone or combined; inoculum 1 × 10^6 cfu/mL, 37°C, samples 0-24 h; three experiments. On the procedure: as §2, §3
Data set [6] concerns K. pneumoniae VIM-1/DHA-1 producer. Type of data set: cell-based, Klebsiella pneumoniae. Conditions: colistin 2 mg/L (EUCAST breakpoint), rifampin 2 mg/L, alone or combined; inoculum 1 × 10^6 cfu/mL, 37°C, samples 0-24 h; three experiments. On the procedure: as §2, §3
The test system of data set [7] is K. pneumoniae Kp21, VIM-1/DHA-1 producer. Briefly: MIC by broth microdilution (agar dilution for fosfomycin). The class given is cell-based, Klebsiella pneumoniae. Conditions: for MIC: broth microdilution. From the text: (§4) Four genetically unrelated clinical isolates of CP-Kp were studied: Kp07, a VIM-1 ST 1603 clone producer ([Miro et al., 2013]); Kp21, which co-produced VIM-1 and the acquired AmpC type beta-lactamase DHA-1 ST 11 clone ([Miro et al., 2013]); Kp28, co-producing OXA-48 ST11 clone and the extended spectrum beta-lactamase (ESBL) CTX-M-15 ([Oteo et al., 2015]); and Kp29, co-producing KPC-3 ST512 clone with the broad spectrum beta-lactamases TEM-1 and SHV-11 ([Lopez-Cerero et al., 2014]), thereinafter VIM-1, VIM-1/DHA-1, OXA-48 plus CTX-M-15, and KPC-3 producers, respectively. Identification of these isolates was confirmed by a Microflex LT-MALDI Biotyper mass spectrometer (Bruker Daltonics GmbH, Bremen, Germany). The presence of carbapenemase genes, and genes coding for other beta-lactamases was confirmed by PCR and sequencing as described previously. The absence of genetic relation among the isolates was confirmed by PFGE analysis of chromosomal restriction fragments obtained after XbaI cleavage following the criteria of [Tenover et al. (1995)]. […] The antibiotic susceptibility profiles are included in the Supplementary Information.
(§5) MICs of antibiotics were determined by broth microdilution as recommended by the [Clinical and Laboratory Standards Institute [CLSI] (2012)], using Mueller Hinton broth II (MHB) (Becton Dickinson & Co., Sparks, MD, United States) and agar dilution method for fosfomycin. MIC results were interpreted according to the [European Committee on Antimicrobial Susceptibility Testing [EUCAST] (2016)]^1 breakpoints. Studies were performed in triplicate.
A general note: Broth dilution looks for growth in wells or tubes with falling amounts of substance.

For data set [8], the system named is K. pneumoniae Kp07, VIM-1 producer. The data set is described as above. Conditions: for MIC: broth microdilution. The class given is cell-based, Klebsiella pneumoniae.
Description: as §4, §5

Data set [9] deals with K. pneumoniae Kp28, OXA-48 plus CTX-M-15 producer. The description is as above. The class given is cell-based, Klebsiella pneumoniae. Conditions: for MIC: broth microdilution.
Description: as §4, §5

Data set [10] concerns K. pneumoniae Kp29, KPC-3 producer. Described as above. Type of data set: cell-based, Klebsiella pneumoniae. Conditions: for MIC: broth microdilution.
Description: as §4, §5

The test system of data set [11] is K. pneumoniae VIM-1 strain. The class given is in vivo. Conditions: CMS 20 mg/kg/8 h ip, rifampin 25 mg/kg/6 h ip, alone or combined. The procedure: (§6) A previously described murine peritoneal sepsis model was used ([Parra Millan et al., 2016]). Briefly, groups of un-anesthetized C57BL/6 mice were infected by ip injection of 0.5 mL of the Minimal Lethal Dose (MLD) of each strain, corresponding to (log10 cfu/mL): 8.97, 8.94 9.35, and 8.38 for VIM-1, VIM-1/DHA-1, OXA-48 plus CTX-M-15, and KPC-3 strains, respectively. Treatments were initiated 4 h post-inoculation. […] Afterward, mice were treated and monitored for 72 h. […] Samples were extracted and processed immediately after the death of mice; the survivor mice were sacrificed (sodium thiopental) at the 72 h. Aseptic thoracotomies were carried out, and blood samples were obtained for qualitative blood cultures; results were expressed as positive (≥1 cfu present in the plate) or negative. Spleens were aseptically extracted, weighed, and homogenized in sterile saline (Stomacher 80; Tekmar Co., Cincinnati, OH, United States) before quantitative cultures (log10 cfu/g) in Columbia agar with 5% sheep blood plates.
(§7) Mortality and bacteremia rates are expressed as percentages and bacterial tissue concentrations (log10 cfu/g) as means ±SD. The two-tailed Fisher’s test, analysis of variance (ANOVA), and the Dunnet and Tukey post hoc tests were used. A P < 0.05 was considered significant. The SPSS v22.0 statistical package was used (SPSS Inc).

The subject of data set [12] is K. pneumoniae VIM-1/DHA-1 strain. The class given is in vivo. Conditions: CMS 20 mg/kg/8 h ip, rifampin 25 mg/kg/6 h ip, alone or combined. The procedure:
as §6, §7

Data set [13] relates to K. pneumoniae KPC-3 strain. The class given is in vivo, C57BL/6 mice infected with Klebsiella pneumoniae. Conditions: CMS 20 mg/kg/8 h ip, rifampin 25 mg/kg/6 h ip, alone or combined. On the procedure:
as §6, §7

The test system of data set [14] is K. pneumoniae OXA-48 plus CTX-M-15 strain. Put plainly: Murine peritoneal sepsis model. Type of data set: in vivo, C57BL/6 mice infected with Klebsiella pneumoniae. Conditions: CMS 20 mg/kg/8 h ip, rifampin 25 mg/kg/6 h ip, alone or combined. The procedure: as §6, §7
Data set [15] shares this test system. The class given is in vivo. The procedure:
A previously characterized murine pneumonia model was used ([Pachon-Ibanez et al., 2010]; [Docobo-Perez et al., 2012]; [Parra Millan et al., 2016]) with the OXA-48 plus CTX-M-15 strain, as OXA-48 is the most prevalent carbapenemase in Spain nowadays ([Palacios-Baena et al., 2016]). Anesthetized mice were infected intratracheally, using 50 μl of a final inoculum of 8.18 log10 cfu/mL. Therapies were initiated 4 h post-infection and treatment groups and dosages were the same as in the peritoneal sepsis model. Mice were treated and monitored over 72 h. After death or sacrifice of the mice at 72 h, blood and lungs samples were aseptically obtained and processed as detailed above.
as §7

For data set [16] the following is noted: mouse, in vivo.
Description: Mice were housed in an individually ventilated cage system under specific pathogen-free conditions, and water and food supplied ad libitum. […] All procedures were performed under sodium thiopental (B. Braun Medical S.A., Spain) anesthesia, and all efforts were made to minimize suffering.
Blood samples were immediately centrifuged (4500 rpm, 15 min at 4°C), and serum samples stored at -80°C until the analysis. Both serum free and total antibiotic concentrations were measured using HPLC-tandem mass spectrometry (LC-MS/MS) ([Waters et al., 2008]; [Gobin et al., 2010]). Free fractions of the drugs were calculated as described previously ([Waters et al., 2008]; [Gonzalez et al., 2013]; [Cheah et al., 2015]).
Setting [17] is: Table 1, Mueller Hinton broth II, CLSI, triplicate.
Setting [18] is: 72 h, from 4 h post-inoculation.
Setting [19] is: qualitative blood cultures at death or 72 h.

Values after ≈ are worked out from the molar mass of the structure shown. Where two headings read alike, the source gives them in different places. Positions of bridges follow the written chain, without caps; N, C: chain ends. Non-standard residues stand in square brackets, D forms with d. Residues, ends and D or L forms follow the SMILES beside them. *: point of attachment. X1 = CC[C@H](C)CCCCC(=O)*; Dab = NCC[C@H](N)C(=O)O Some results are limits rather than exact numbers.

Take `CC[C@H](C)CCCCC(=O)N[C@@H](CCN)C(=O)N[C@H](C(=O)N[C@@H](CCN)C(=O)N[C@H]1CCNC(=O)[C@H]([C@@H](C)O)NC(=O)[C@H](CCN)NC(=O)[C@H](CCN)NC(=O)[C@H](CC(C)C)NC(=O)[C@@H](CC(C)C)NC(=O)[C@H](CCN)NC1=O)[C@@H](C)O` [Colistin, colistin] (X1-[Dab]T[Dab][Dab][Dab][dL]L[Dab][Dab]T; lactam 4-C (inferred); N-terminus assumed): the “Colistin MIC of colonies recovered after exposure to colistin” value in data set [1] and in data set [2] was over 8 µg/mL in each case. The “Regrowth in time-kill curves” value in data set [3] (at 24 h, colistin 0.5 mg/L) is “important regrowth at 24 h”; in data set [4], “important regrowth at 24 h”. Further, the “Bactericidal activity in time-kill curves (decrease ≥ 3 log10 cfu/mL from the starting inoculum)” value in data set [3] (colistin 0.5 mg/L (MIC), rifampin 2 mg/L, alone or combined, inoculum 1 × 10^6 cfu/mL, 37°C, samples 0-24 h, three experiments) was “bactericidal at 3 h”; in data set [5] it was “did not display any bactericidal activity”; in data set [6], “did not display any bactericidal activity”. Besides, the MIC is 64 [^∗∗] mg/L in data set [7] (setting [17]); over 32 mg/L in data set [7] (supplement table, strain KPc21); 0.5 [^∗] mg/L in [8] (setting [17]); 0.5 mg/L (≈ 0.428 µM) in [8] (supplement table, strain KPc07); 0.5 [^∗] mg/L in data set [9] (setting [17]); 0.5 mg/L (≈ 0.428 µM) in [9] (supplement table, strain KPc28). Further, the MIC in [10] (setting [17]) was 32 [^∗∗] mg/L; in data set [10] (supplement table, strain KPc29), over 32 mg/L. In addition, the “SIR, classification according to EUCAST definitions” value is “R” in [7] (supplement table, strain KPc21, EUCAST 2016 breakpoints, fosfomycin by agar dilution); “S” in data set [8] (supplement table, strain KPc07, EUCAST 2016 breakpoints, fosfomycin by agar dilution); “S” in data set [9] (supplement table, strain KPc28, EUCAST 2016 breakpoints, fosfomycin by agar dilution); “R” in data set [10] (supplement table, strain KPc29, EUCAST 2016 breakpoints, fosfomycin by agar dilution).
Take colistimethate sodium [CMS]: the “Mice mortality (%)” value in data set [11] (setting [18]) came out at 93.33%; in [12] (setting [18]) it was 100%; in data set [13] (setting [18]) it was 75%; in data set [14] (setting [18]) it was 100%; in [15] (72 h, CMS 20 mg/kg/8 h ip, rifampin 25 mg/kg/6 h ip, alone or combined, from 4 h post-infection), 26.70%. Further, the “Log10 cfu/g spleen (mean ±SD)” value came out at 8.60 ± 0.30 log10 cfu/g in [11] (ip MLD 8.97 log10 cfu/mL, from 4 h post-inoculation, 72 h, at death or 72 h, SD); 9.54 ± 0.34 log10 cfu/g in data set [12] (ip MLD 8.94 log10 cfu/mL, from 4 h post-inoculation, 72 h, at death or 72 h, SD); 9.19 ± 1.85 log10 cfu/g in data set [13] (ip MLD 8.38 log10 cfu/mL, from 4 h post-inoculation, 72 h, at death or 72 h, SD); 9.52 ± 0.55 log10 cfu/g in [14] (ip MLD 9.35 log10 cfu/mL, from 4 h post-inoculation, 72 h, at death or 72 h, SD). The “Bacteremia (%)” value is 100% in data set [11] (setting [19]); 100% in data set [12] (setting [19]); 100% in data set [13] (setting [19]); 100% in data set [14] (setting [19]); 40% in data set [15] (blood cultures at death or 72 h, CMS 20 mg/kg/8 h ip, rifampin 25 mg/kg/6 h ip, alone or combined). Moreover, the Bacterial lung decrease in data set [15] (CMS monotherapy 20 mg/kg/8 h ip vs control group, not significant) was determined as 2.91 log10 cfu/g. In [15] (intratracheal 50 μl of 8.18 log10 cfu/mL, CMS 20 mg/kg/8 h ip, rifampin 25 mg/kg/6 h ip, alone or combined, from 4 h post-infection, 72 h, at death or 72 h, SD), the “Log10 cfu/g lung (mean ±SD)” value was determined as 5.14 ± 3.78 log10 cfu/g. Further, the “t1/2, free drug in serum” value in data set [16] amounted to 3.82 h. Besides, in data set [16], the “t1/2, total drug in serum” value is recorded as 3.82 h.
